Test results from PMC10002375, “Synthesis of 3-(2-Alkylthio-4-chloro-5-methylbenzenesulfonyl)-2-(1-phenyl-3-arylprop-2-enylideneamino)guanidine Derivatives with Pro-Apoptotic Activity against Cancer Cells” (International Journal of Molecular Sciences, 2023).

Key:
Format in all cases: cell-based, human
MCF-7 (breast cancer) = assay: MTT cell viability assay, MCF-7; details: Homo sapiens, MCF7; MTT, 72 h
Source text: The cytotoxic activity of the compounds 8–33 has been evaluated in MTT assays against three human cancer cell lines MCF-7 (breast cancer), HeLa (cervical cancer), and HCT-116 (colon cancer) and it was expressed as IC50 values in μM (Table 1).
(§1) All chemicals, if not stated otherwise, were obtained from Sigma-Aldrich (St. Louis, MO, USA). The MCF-7 cell line was purchased from Cell Lines Services (Eppelheim, Germany), the HeLa and HCT-116 cell lines were obtained from the Department of Microbiology, Tumor and Cell Biology, Karolinska Institute (Stockholm, Sweden). Cells were cultured in Dulbecco’s modified Eagle’s medium (DMEM) supplemented with 10% fetal bovine serum, 2 mM glutamine, 100 units/mL penicillin, and 100 μg/mL streptomycin. Cultures were maintained in a humidified atmosphere with 5% CO2 at 37 °C in an incubator (HeraCell, Heraeus, Langenselbold, Germany).
(§2) Cell viability was determined using the MTT (3-(4,5-dimethylthiazol-2-yl)-2,5-diphenyl-tetrazoliumbromide) assay. Stock solutions of the studied compounds were prepared in 100% DMSO. […] Cells were seeded in 96-well plates at a density of 5 × 10^3 cells/well and treated for 72 h with the examined compounds in the concentration range 1–100 μM (1, 10, 25, 50, and 100 μM). Following treatment, MTT (0.5 mg/mL) was added to the medium and cells were further incubated for 2 h at 37 °C. Cells were lysed with DMSO and the absorbance of the formazan solution was measured at 550 nm with a plate reader (1420 multilabel counter, Victor, Jügesheim, Germany). […] The experiment was performed in triplicate. Values are expressed as the mean ± SD of at least three independent experiments.

HeLa (cervical cancer) = assay: MTT cell viability assay, HeLa; details: Homo sapiens, HeLa; MTT, 72 h
Protocol: as §1, §2

HCT-116 (colon cancer) = assay: MTT cell viability assay, HCT-116; details: Homo sapiens, HCT-116; MTT, 72 h
Protocol: as §1, §2

MCF-7 cells [1] = assay: Cell cycle distribution by flow cytometry, MCF-7
Protocol: (§3) The cell cycle distribution was measured by flow cytometry analysis after incubation of MCF-7, HeLa, and HCT-116 with compounds 24 and 31 for 72 h.

HeLa cells [2] = assay: Cell cycle distribution by flow cytometry, HeLa; details: 72 h
Protocol: as §3

HCT-116 cells [3] = assay: Cell cycle distribution by flow cytometry, HCT-116
Protocol: as §3

MCF-7 cells [4] = assay: Mitochondrial membrane potential (JC-1, flow cytometry), MCF-7; details: MCF-7, 72 h, 24 at 10 or 25 μM, 31 at 25 μM
Source text: (§4) A decrease in mitochondrial potential is one of the earliest hallmarks of apoptosis. A common method for indication of cells with high and low Δψm is flow cytometry combined with specific fluorescent probes, such as JC-1 (5,5′,6,6′-tetrachloro-1,1′,3,3′-tetraethylbenzimidazolylcarbocyanine iodide). JC-1 accumulates in mitochondria and forms complexes (J aggregates) with red fluorescence in healthy cells with a normal ΔΨm, whereas in apoptotic cells with a low ΔΨm exists as a monomer with green fluorescence.
(§5) Analyzed cells were seeded into wells of a 24-well plate at a density of 5 × 10^4 cells in 1000 µL, incubated overnight, and then the medium was exchanged for dilutions of reagents 24 and 31. Before the end of 72 h of incubation, MitoProbe JC-1 (25 µM) was added into each plate well. Carbonyl cyanide m-chlorophenylhydrazone CCCP (200 nM) as the mitochondrial oxidative phosphorylation uncoupler was added into the positive control 15 min before JC-1 was added. After 30 min of JC-1 staining, cells were washed with PBS and then trypsinized (Corning® 25-053CI). Cells suspended in PBS were analyzed by flow cytometry at λ excitation (ex) = 488 nm and λ emission (em) = 525/570 nm (LSR II BD Biosciences, San Jose, CA, USA).

HeLa cells [5] = assay: Mitochondrial membrane potential (JC-1, flow cytometry), HeLa; details: 72 h, 24 at 10 or 25 μM, 31 at 25 μM
Source text: as §4, §5

HCT-116 cells [6] = assay: Mitochondrial membrane potential (JC-1, flow cytometry), HCT-116; details: HCT-116, 72 h, 24 at 10 or 25 μM, 31 at 25 μM
Source text: as §4, §5

MCF-7 cells [7] = assay: Phosphatidylserine translocation (Annexin V-FITC/PI), MCF-7; details: MCF-7, 72 h; 24 at 10 or 25 μM, 31 at 25 μM
Source text: (§6) One of the early indicators of apoptosis is the exposure of phosphatidylserine residues on the cell’s surface. Annexin V has a high affinity to phosphatidylserine and, as a conjugate to fluorescein isothiocyante (FITC), is widely used for detection of early apoptotic cells using flow cytometry. Detection of late-apoptotic or necrotic cells is achieved by using propidium iodide (PI) stain. Based on the obtained fluorescence, four subpopulations were found: PI-low/FITC-low (live cells), PI-high/FITC-low (necrotic cells), PI-low/FITC-high (early apoptotic cells), and PI-high/FITC-high (late apoptotic cells).
(§7) Analysis was performed using FITC-conjugated annexin-V (Annexin V-FITC Apoptosis Kit I, BD Biosciences, San Jose, CA, USA) according to the manufacturer’s instructions (BD Biosciences) as described previously. HeLa, MCF-7, and HCT-116, after seeding to 24-well plates (5 × 10^4/per well) and 24 h incubation, were treated for 72 h with 24 or 31 (10/25 µM or 25 µM concentration respectively). Following treatment, cells were washed in PBS, centrifuged, and then resuspended in a binding buffer. Afterward, the cells were incubated for 15 min at 37 °C with FITC-conjugated annexin-V and propidium iodide. The samples were then analyzed using a LSR II flow cytometer (BD Biosciences) using 530 ± 25 nm (Annexin V-FITC) and 575 ± 26 nm (PI).
(§8) The subpopulations were identified according to their fluorescence: PI-low/FITC-low (live cells), PI-high/FITC-low (necrotic cells), PI-low/FITC-high (early apoptotic cells), and PI-high/FITC-high (late apoptotic cells).

HeLa cells [8] = assay: Phosphatidylserine translocation (Annexin V-FITC/PI), HeLa; details: 72 h, 24 at 10 or 25 μM, 31 at 25 μM
Source text: as §6, §7, §8

HCT-116 cells [9] = assay: Phosphatidylserine translocation (Annexin V-FITC/PI), HCT-116; details: HCT-116, 72 h; 24 at 10 or 25 μM, 31 at 25 μM
Source text: as §6, §7, §8

COc1ccc(C=CC(=NN=C(N)NS(=O)(=O)c2cc(C)c(Cl)cc2SCc2ccc(Cl)cc2)c2ccccc2)cc1 [Compound 31]
IC50 (MCF-7 (breast cancer)): 230 ± 13 µM | IC50 (HeLa (cervical cancer)): 110 ± 5 µM | IC50 (HCT-116 (colon cancer)): 365 ± 11 µM | cells in sub-G1 phase (MCF-7 cells [1]; MCF-7, 25 μM, 72 h): 2.78% | effect on cell cycle distribution (MCF-7 cells [1]; MCF-7, 72 h, 24 at 10 and 25 μM, 31 at 25 μM): does not substantially affect the cell cycle progression | cells in sub-G1 phase (HeLa cells [2]; 25 μM, control 5.08%): 5.45% | effect on cell cycle distribution (HeLa cells [2]; 24 at 10 and 25 μM, 31 at 25 μM): does not substantially affect the cell cycle progression | cells in sub-G1 phase (HCT-116 cells [3]; HCT-116, 25 μM, 72 h, control 1.15%): 1.84% | effect on cell cycle distribution (HCT-116 cells [3]; HCT-116, 72 h, 24 at 10 and 25 μM, 31 at 25 μM): does not substantially affect the cell cycle progression | change of mitochondrial membrane potential (ΔΨm) (MCF-7 cells [4]): did not result in a loss of ΔΨm | change of mitochondrial membrane potential (ΔΨm) (HeLa cells [5]): did not result in a loss of ΔΨm | change of mitochondrial membrane potential (ΔΨm) (HCT-116 cells [6]): did not result in a loss of ΔΨm | population of apoptotic cells (Annexin V-FITC/PI) (MCF-7 cells [7]): did not cause statistically significant differences compared to the control | population of apoptotic cells (Annexin V-FITC/PI) (HeLa cells [8]): did not cause statistically significant differences compared to the control | population of apoptotic cells (Annexin V-FITC/PI) (HCT-116 cells [9]): did not cause statistically significant differences compared to the control
